What was measured:
[1] = Photophysical characterization of probes and uncaged forms (relative fluorescence quantum yield, extinction coefficient, brightness); format: physicochemical; conditions: for Brightness: in M⁻¹·cm⁻¹ (unit assumed)
Experimental: (§1) The pKa of TEG-TC was determined to be 7.1±0.1 using UV-Vis spectrophotometric measurements. Under the confocal imaging conditions (pH 7.5-8.5 with cell-free assays, pH 7.4 with cells), a substantial population of the 7-hydroxycoumarin should exist in its aryloxide form. The change in coumarin fluorogenicity was assessed upon uncaging the probes from the oxobutylphenyl carbonate by measuring the relative fluorescence quantum yield (ΦFrel) values (Table 2). Coumarin 343 was used as a standard, which has an absolute fluorescence quantum yield ([…]) of 0.63 in ethanol. The ΦFrel values of TEG-TC-ONOO^− (entry 1) and DPPC-TC-ONOO^− (entry 3) were measured as 0.08 and 0.09, respectively. […] The ΦFrel values for TEG-TC (entry 2) and DPPC-TC (entry 4), which were synthesized independently, were measured as 0.66 and 0.64, respectively.
Next, the impact of caging and uncaging of the coumarin or fluorescein moieties on their fluorogenicity was assessed by measuring the relative fluorescence quantum yield (ΦFrel) values (Table 3). Coumarin 343 was used as the standard for measuring ΦFrel of the triazole-coumarin compounds (TEG-TC-H2S, TEG-TC, DPPC-TC-H2S, and DPPC-TC) whereas fluorescein for the triazole-fluorescein compounds (TEG-TF-H2O2, TEG-TF, and DPPC-TF-H2O2, and DPPC-TF). Relative to coumarin 343, whose absolute fluorescence quantum yield (ΦF) is 0.63 in ethanol, ΦFrels of the H2S probes TEG-TC-H2S (entry 1) and DPPC-TC-H2S (entry 3) were determined to be 0.07 and 0.03, respectively.
(§2) The pKa of TEG-TC was previously found to be to be 7.1±0.1 using UV-Vis spectrophotometric measurements. Under the fluorescence activation assay conditions that are employed here (Tris 50 mM, pH 7.5), a substantial population of the coumarin moiety is expected to be in its aryloxide anion form. Relative to fluorescein, whose ΦF is 0.79 in ethanol, ΦFrel values of the H2O2 probes TEG-TF-H2O2 (entry 5) and DPPC-TF-H2O2 (entry 7) were determined to be 0.04 and 0.02, respectively.

[2] = Confocal imaging of H2O2-sensing giant vesicles
Source text: FIGS. 14A-14B: giant vesicles (GVs) that can sense reductive (FIG. 14A) or oxidative (FIG. 14B) environments. Confocal images acquired for H2S-sensing GV at 405/475 nm (ex/em) (FIG. 14A) and H2O2 sensing GV at 490/520 nm (ex/em) (FIG. 14B). Lipid compositions of GVs: POPC, POPG, cholesterol, and DPPC-TC-H2S (48:21:30:1 molar ratio; FIG. 14A); and POPC, POPG, cholesterol, and DPPC-TF-H2O2 (48.5:21:30:0.5; FIG. 14B). To label vesicle membranes, Liss-Rhod PE dye (563/580 nm) was introduced to the lipid mixture at an insignificant molar ratio (0.1 mol %). Concentrations of RSS and ROS were set to 500 and 100 μM, respectively. Scale bar=5 μm.
The redox sensing abilities of giant vesicles (GVs) comprising DPPC-TC-H2S or DPPC-TF-H2O2 were investigated. In most biomimetic systems that rely on compartmentalization, physical membrane boundaries are comprised of phospholipids and cholesterol. These lipid self-assemblies have dimensional properties (1-30 μm in diameter) relevant to those of a mammalian plasma membrane (10-100 μm), display physical characteristics feasible for confocal fluorescence imaging, and are conveniently utilized for bottom-up construction of biomimetic protocells. […]
The vesicle size distribution was analyzed by dynamic light scattering (DLS), confirming the presence of GVs. […]

[3] = in ethanol; standard; cited from earlier work
[4] = Fluorescence response of TEG-TC-ONOO^− to peroxynitrite in Tris buffer (plate reader)
Experimental: FIG. 7A: time-dependent change in relative fluorescence intensities for probe TEG-TC-ONOO^− (1 μM) and compound TEG-TC (1 μM) in Tris (50 mM, pH 7.5) upon addition of ONOO^− (600 μM). Filled square: TEG-TC, hollow square: TEG-TC+ONOO^−, filled circle: TEG-TC-ONOO^−, and hollow circle: TEG-TC-ONOO^−+ONOO^−. Error bars represent standard deviation, n=3. FIG. 7B: relative fluorescence intensity (F) with respect to the background fluorescence intensity (F0) of TEG-TC-ONOO^− in the absence or presence of redox species. Probe TEG-TC-ONOO^− (1 μM) was dissolved in Tris buffer (50 mM, pH 7.5) and subjected to RNS and ROS (600 μM): ONOO^−, NO·, H2O2, HO·, ^1O2, and O·^−. Data represent FIFO measurements for samples incubated for 60 min. Plate reader was set to excitation at 405 nm and emission at 475 nm. Error bars represent standard deviation, n=3. The response rate and magnitude of TEG-TC-ONOO^− against ONOO^− was evaluated by measuring the relative fluorescence intensities of samples containing TEG-TC-ONOO^− and TEG-TC (positive control) at 405 nm excitation (FIG. 7A). These samples, prepared in Tris buffer (50 mM, pH 7.5), were measured over 60 minutes of incubation with and without ONOO^−. Physiologically normal ONOO^− production rate in cells has been estimated to be in the single-digit μM range, while reaching up to 100 μM under dysregulated conditions. Guided by this information, and in agreement with the fluorescence titration conditions employed for cytosolic resorufin-based peroxynitrite sensors, it was reasoned that administering 600 μM of ONOO^− into a pH 7.5 medium would provide a steady level of effective ONOO^− within a biologically relevant concentration range of […]. […] The difference in fluorescence between the peroxynitrite-treated and untreated samples reached up to 5-fold at the end of 60 minutes. During this time period, the relative fluorescence intensity of the sample containing TEG-TC-ONOO^− became ˜85% of that of the sample containing TEG-TC (positive control). This trend of increasing fluorescence output was mirrored in the level of conversion of TEG-TC-ONOO^− into TEG-TC based on UV-Vis spectrophotometric measurements. The peroxynitrite-specificity of the probe design was assessed by subjecting TEG-TC-ONOO^− to other redox species, including NO·, hydrogen peroxide (H2O2), singlet oxygen (^1O2), hydroxyl radicals (HO·), and O2·^− (FIG. 7B). Change in fluorescence intensity following excitation at 405 nm was measured over 60 minutes of incubation of TEG-TC-ONOO^− with each species and presented based on the signal-to-background ratio F/F0, where F and F0 are defined as the fluorescence with and without the analyte. In the absence of a redox species, F/F0 for TEG-TC-ONOO^− increased only 13% (F/F0=1.13) over 60 minutes. Treatment of TEG-TC-ONOO^− with ONOO^− gave rise to ˜570% increase in fluorescence (F/F0=6.69).

[5] = Peroxynitrite-specificity: TEG-TC-ONOO^− subjected to other redox species; conditions: for F/F0: 60 min
Experimental: FIG. 7A: time-dependent change in relative fluorescence intensities for probe TEG-TC-ONOO^− (1 μM) and compound TEG-TC (1 μM) in Tris (50 mM, pH 7.5) upon addition of ONOO^− (600 μM). Filled square: TEG-TC, hollow square: TEG-TC+ONOO^−, filled circle: TEG-TC-ONOO^−, and hollow circle: TEG-TC-ONOO^−+ONOO^−. Error bars represent standard deviation, n=3. FIG. 7B: relative fluorescence intensity (F) with respect to the background fluorescence intensity (F0) of TEG-TC-ONOO^− in the absence or presence of redox species. Probe TEG-TC-ONOO^− (1 μM) was dissolved in Tris buffer (50 mM, pH 7.5) and subjected to RNS and ROS (600 μM): ONOO^−, NO·, H2O2, HO·, ^1O2, and O·^−. Data represent FIFO measurements for samples incubated for 60 min. Plate reader was set to excitation at 405 nm and emission at 475 nm. Error bars represent standard deviation, n=3. The peroxynitrite-specificity of the probe design was assessed by subjecting TEG-TC-ONOO^− to other redox species, including NO·, hydrogen peroxide (H2O2), singlet oxygen (^1O2), hydroxyl radicals (HO·), and O2·^− (FIG. 7B). Change in fluorescence intensity following excitation at 405 nm was measured over 60 minutes of incubation of TEG-TC-ONOO^− with each species and presented based on the signal-to-background ratio F/F0, where F and F0 are defined as the fluorescence with and without the analyte. In the absence of a redox species, F/F0 for TEG-TC-ONOO^− increased only 13% (F/F0=1.13) over 60 minutes. Treatment of TEG-TC-ONOO^− with ONOO^− gave rise to ˜570% increase in fluorescence (F/F0=6.69). […] NO·, a free radical RNS that serves as a signaling molecule in cells, had essentially no effect on fluorescence intensity (F/F0=1.03).

[6] = test system: HeLa and RAW 264.7 cells; assay: Subcellular localization of non-amphiphilic probes in cells treated directly; format: cell-based; conditions: 20 minutes, TEG-TC-ONOO− cells then stimulated
Experimental: Therefore, cells were treated with TEG-TC (positive control) or TEG-TC-ONOO− directly and incubated for 20 minutes. Those treated with TEG-TC-ONOO− were then stimulated via the methods described above. […] In the case of RAW 264.7 cells, the intracellular homogeneity of the signal was especially substantial.

[7] = pKa by UV-Vis spectrophotometric measurements; format: physicochemical
Experimental: as §1, §2

SMILES: CCCCCCCCCCCCCCCC(=O)OCC(COP(=O)([O-])OCC[N+](C)(C)Cc1cn(-c2ccc3c(c2)C(=O)OC32c3ccc(OC(=O)OCc4ccc(B5OC(C)(C)C(C)(C)O5)cc4)cc3Oc3cc(OC(=O)OCc4ccc(B5OC(C)(C)C(C)(C)O5)cc4)ccc32)nn1)OC(=O)CCCCCCCCCCCCCCC (racemic) [DPPC-TF-H2O2]
- Emmax [1]: 519.5 nm
- Exmax [1]: 495.2 nm
- Ext. Coeff. [1]: 10685 M⁻¹ cm⁻¹
- Relative Brightness ([1]; Table 3, brightness compared to that of DPPC-TF-H2O2): 1.0
- Brightness [1]: 214
- Quantum Yield (relative fluorescence quantum yield ΦFrel) ([1]; standard fluorescein): 0.02
- GV fluorescence at the membrane ([2]; GVs with POPC, POPG, cholesterol, H2O2 (100 PM) over 90 min): substantial fluorescence increase
- GV fluorescence intensities ([2]; equimolar other ROS (NO, ·OH, O2·^−)): comparable to those for the untreated GVs

SMILES: O=C(O)c1cc2cc3c4c(c2oc1=O)CCCN4CCC3 [Coumarin 343]
- absolute fluorescence quantum yield (ΦF) [3]: 0.63

SMILES: O=C(Oc1ccc(CCC(=O)C(F)(F)F)cc1)Oc1ccc2cc(-n3cc(COCCOCCOCCO)nn3)c(=O)oc2c1 [TEG-TC-ONOO^−]
- Emmax [1]: 472.0 nm
- Exmax [1]: 400.0 nm
- Ext. Coeff. [1]: 4475 M⁻¹ cm⁻¹
- Relative Brightness ([1]; Table 2, DPPC-TC-ONOO^− = 1.0): 1.4
- Brightness [1]: 358
- Quantum Yield (relative fluorescence quantum yield ΦFrel) ([1]; standard coumarin 343): 0.08
- F/F0 ([4]; ONOO^− 600 μM, 60 min, 405/475 nm): 6.69
- difference in fluorescence between peroxynitrite-treated and untreated samples ([4]; ONOO^− (600 PM), Tris 50 mM pH 7.5, end of 60 minutes): up to 5 fold
- relative fluorescence intensity as % of that of TEG-TC (positive control) ([4]; ONOO^− treated, 60 minutes): ~85%
- F/F0 ([4]; absence of a redox species, 60 minutes, 405 nm excitation): 1.13
- increase in F/F0 ([4]; absence of a redox species, over 60 minutes): 13%
- fluorescence compared to the sample untreated ([4]; probe 1 μM, ONOO^− (600 PM), Tris 50 mM pH 7.5, within the first 10 minutes): ~3 fold
- increase in fluorescence ([4]; treatment with ONOO^−, 60 min): ~570%
- relative fluorescence enhancement for ONOO^− compared to the other RNS and ROS [5]: ~36 fold
- F/F0 ([5]; H2O2 600 μM): 1.16
- fluorescence intensity stronger than background ([5]; H2O2, 60 min): 16%
- F/F0 ([5]; NO· 600 μM): 1.03
- subcellular distribution of signal [6]: throughout the cells, including the nucleus

SMILES: O=c1oc2cc(O)ccc2cc1-n1cc(COCCOCCOCCO)nn1 [TEG-TC]
- pKa [7]: 7.1±0.1
- Emmax [1]: 471.4 nm
- Exmax [1]: 397.0 nm
- Ext. Coeff. [1]: 15613 M⁻¹ cm⁻¹
- enhanced brightness, uncaging product vs caged probe [1]: 28 fold
- Relative Brightness ([1]; Table 2, DPPC-TC-ONOO^− = 1.0): 41.1
- Relative Brightness ([1]; Table 3, brightness compared to that of DPPC-TC-H2S): 143.2
- Brightness [1]: 10305
- Quantum Yield (relative fluorescence quantum yield ΦFrel) ([1]; standard coumarin 343): 0.66
- subcellular distribution of signal [6]: throughout the cells, including the nucleus
